Source: ChEMBL document CHEMBL1201862, “PubChem BioAssay data set” (2004)
Active and inactive are the calls of the source.

How the values were obtained:
Protein RecA = target: T1, Protein RecA (Mycobacterium tuberculosis, UniProt P9WHJ3); experiment: Fluorescence Cell-Free Homogeneous Dose Retest to Identify Inhibitors of RecA-Intein Splicing Activity. [Related pubchem assays (depositor defined):AID2097, AID2223, AID489010, AID492950]; type: functional
T1 sequence (P9WHJ3 whole entry): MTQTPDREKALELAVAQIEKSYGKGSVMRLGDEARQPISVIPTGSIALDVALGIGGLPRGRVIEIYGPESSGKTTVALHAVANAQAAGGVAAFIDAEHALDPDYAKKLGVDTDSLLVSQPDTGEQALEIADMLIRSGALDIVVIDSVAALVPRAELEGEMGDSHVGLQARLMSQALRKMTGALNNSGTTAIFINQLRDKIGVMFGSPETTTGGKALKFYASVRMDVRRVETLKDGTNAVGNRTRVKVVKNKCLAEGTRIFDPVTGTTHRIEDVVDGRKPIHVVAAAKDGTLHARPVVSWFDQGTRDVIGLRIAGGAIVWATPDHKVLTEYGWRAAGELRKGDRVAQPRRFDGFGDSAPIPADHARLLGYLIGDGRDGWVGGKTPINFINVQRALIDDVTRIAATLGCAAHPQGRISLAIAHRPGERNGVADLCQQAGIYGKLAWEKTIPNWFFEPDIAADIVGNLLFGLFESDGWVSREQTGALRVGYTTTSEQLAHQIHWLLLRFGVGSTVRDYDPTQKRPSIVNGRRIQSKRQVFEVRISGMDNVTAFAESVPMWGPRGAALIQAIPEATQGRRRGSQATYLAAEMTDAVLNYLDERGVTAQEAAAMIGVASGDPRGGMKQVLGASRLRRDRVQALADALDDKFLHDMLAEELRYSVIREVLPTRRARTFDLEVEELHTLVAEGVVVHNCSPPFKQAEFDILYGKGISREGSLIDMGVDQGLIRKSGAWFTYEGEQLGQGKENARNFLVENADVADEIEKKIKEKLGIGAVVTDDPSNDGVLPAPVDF

[1] = target: T2, Replicative DNA helicase DnaB (Mycobacterium tuberculosis, UniProt P9WMR3); experiment: DnaB intein splicing inhibitors, dose response, biochemical, cell-free fluorescence (AID 449749); type: functional
T2 sequence (P9WMR3 whole entry): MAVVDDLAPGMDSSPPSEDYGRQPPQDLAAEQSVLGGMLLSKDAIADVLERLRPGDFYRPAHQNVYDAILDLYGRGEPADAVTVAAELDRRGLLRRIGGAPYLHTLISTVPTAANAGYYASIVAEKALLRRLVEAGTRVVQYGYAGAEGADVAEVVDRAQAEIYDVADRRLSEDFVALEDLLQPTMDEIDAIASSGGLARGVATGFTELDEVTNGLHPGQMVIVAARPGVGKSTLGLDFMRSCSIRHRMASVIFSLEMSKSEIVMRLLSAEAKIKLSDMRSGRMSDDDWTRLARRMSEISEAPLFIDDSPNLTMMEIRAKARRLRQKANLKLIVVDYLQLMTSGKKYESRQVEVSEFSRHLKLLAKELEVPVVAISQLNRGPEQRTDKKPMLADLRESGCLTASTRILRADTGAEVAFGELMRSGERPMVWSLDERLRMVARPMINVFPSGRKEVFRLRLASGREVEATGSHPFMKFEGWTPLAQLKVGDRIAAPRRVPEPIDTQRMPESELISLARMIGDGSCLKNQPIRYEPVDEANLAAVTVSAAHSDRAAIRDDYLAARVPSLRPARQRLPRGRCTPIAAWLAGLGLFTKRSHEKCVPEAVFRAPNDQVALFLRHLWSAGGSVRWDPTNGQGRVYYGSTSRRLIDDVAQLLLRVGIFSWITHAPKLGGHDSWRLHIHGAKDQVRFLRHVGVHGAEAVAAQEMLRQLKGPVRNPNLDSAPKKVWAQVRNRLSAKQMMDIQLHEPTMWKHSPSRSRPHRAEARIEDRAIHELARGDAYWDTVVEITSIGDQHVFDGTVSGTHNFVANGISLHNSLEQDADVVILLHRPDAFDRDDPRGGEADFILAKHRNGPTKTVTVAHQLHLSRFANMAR

[2] = target: T3, Alkaline phosphatase, tissue-nonspecific isozyme (Homo sapiens, UniProt P05186)
T3 sequence (P05186 whole entry): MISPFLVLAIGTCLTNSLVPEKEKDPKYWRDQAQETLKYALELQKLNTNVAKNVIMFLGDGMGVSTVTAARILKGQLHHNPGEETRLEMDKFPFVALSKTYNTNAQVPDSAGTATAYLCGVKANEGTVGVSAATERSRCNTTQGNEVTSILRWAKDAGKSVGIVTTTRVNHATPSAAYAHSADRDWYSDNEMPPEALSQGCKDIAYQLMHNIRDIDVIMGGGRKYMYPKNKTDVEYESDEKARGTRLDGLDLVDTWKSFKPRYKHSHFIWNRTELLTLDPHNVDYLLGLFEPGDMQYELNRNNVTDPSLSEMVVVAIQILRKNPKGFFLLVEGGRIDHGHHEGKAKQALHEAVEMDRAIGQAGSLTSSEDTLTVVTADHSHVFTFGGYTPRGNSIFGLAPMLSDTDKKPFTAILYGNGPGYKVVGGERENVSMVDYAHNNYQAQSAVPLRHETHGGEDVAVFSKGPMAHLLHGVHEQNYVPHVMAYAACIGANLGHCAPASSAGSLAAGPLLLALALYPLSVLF

Streptococcus [3] = experiment: GAS UMAA2166 growth inhibition – luminescence, BacTiterGlo, counter-screen for streptokinase expression inhibitor project, dose response (AID 1915); type: functional, organism-based;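 further: potency for reduction of bacterial viability or growth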
Streptococcus [4] = experiment: Luminescence Microorganism-Based Dose Response Follow up to Identify Compounds Cytotoxic to Streptococcus. [Related pubchem assays: 1677 (Project Summary), 1915, 1914, 1902 (Retest at Dose), 1900 (Counter Screen), 1662 (Primary HTS)]; type: functional, organism-based
[5] = tested on: Streptococcus sp. 'group A'; experiment: Streptococcus pyogenes SK(-)GAS viability under kanamycin – luminescence, BacTiterGlo, confirmation, counter-screen for streptokinase expression inhibitor project, dose response (AID 1900); type: functional, organism-based
Streptokinase A = target: T4, Streptokinase A (Streptococcus pyogenes serotype M1, UniProt P10520); experiment: viability-normalized secreted streptokinase activity reduction – plasminogen activation absorbance, OD405, dose response (AID 1914); type: functional, Streptococcus pyogenes M1 GAS;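 further: secreted streptokinase activity via plasminogen activation per viability signal from cell pellet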
T4 sequence (P10520 whole entry): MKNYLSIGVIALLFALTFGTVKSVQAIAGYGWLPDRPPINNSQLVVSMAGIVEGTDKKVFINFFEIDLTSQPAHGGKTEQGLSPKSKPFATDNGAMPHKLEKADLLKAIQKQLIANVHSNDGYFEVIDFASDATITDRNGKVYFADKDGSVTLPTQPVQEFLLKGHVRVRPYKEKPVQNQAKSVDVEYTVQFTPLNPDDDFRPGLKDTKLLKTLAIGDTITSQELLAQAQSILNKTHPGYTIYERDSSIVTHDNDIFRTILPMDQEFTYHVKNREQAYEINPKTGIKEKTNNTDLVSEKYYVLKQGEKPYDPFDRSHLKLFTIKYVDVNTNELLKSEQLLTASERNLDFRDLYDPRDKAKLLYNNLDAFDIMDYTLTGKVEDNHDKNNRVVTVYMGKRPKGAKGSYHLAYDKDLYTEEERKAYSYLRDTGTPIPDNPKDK

[6] = M. tuberculosis H37Rv growth inhibitors, H37Rv strain (AID 1626); type: functional
BJ [7] = experiment: growth inhibition of engineered Ras-driven BJ cells – cell-based, alamar blue fluorescence, cherrypicked samples, dose response (AID 2631); type: functional; details: Homo sapiens;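 further: confirmatory dose-response assay in RAS-dependent BJ fibroblasts engineered with TERT, LT and ST, with cytotoxicity read by fluorescence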
[8] = DRD fibroblast viability loss – cell-based, non-viral oncogenic, luminescence, dose response (AID 1934); type: functional; details: Homo sapiens
[9] = HEK-293T viability loss after treatment – luminescence, T-cell screen hits, cytotoxicity control for TCR NF-kB inhibitor project, dose response (AID 489026); type: functional, cell-based;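 further: cells exposed to compound about 14 hours before the viability readout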
[10] = Luminescence Cell-Based Dose Response HTS to Identify Inhibitors of 5'UTR Stem-Loop Driven Prion Protein mRNA Translation in H4 Neuroglioblastoma Cells. [Related pubchem assays: 1827 (Project Summary), 1813 (Primary HTS)]; type: functional
Paired box protein Pax-8 = Paired box protein Pax-8 (Homo sapiens, UniProt Q06710); experiment: PAX8 transcriptional activity inhibition in RMG-I – RMG-I cells, luciferase, cherry-pick, dose response (AID 687027); type: functional, cell-based;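 further: luciferase reporter driven by Pax8 target thyroperoxidase promoter measured by SteadyGlo luminescence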
[11] = Luminescence-based dose response cell-based high throughput screening assay for cytotoxic compounds using the IEC-6 intestinal epithelial cell line. [Related pubchem assays: 1858 (Summary AID.), 1825 (Counterscreen.), 1907 (Confirmation screen.)]; type: functional
[12] = luciferase reporter signal suppression in cells – H4 neuroglioma cells, luminescence, dose response (AID 1990); type: functional, cell-based
[13] = alpha-synuclein stem-loop luciferase translation blockers – H4 neuroglioma cells, luminescence, confirmation (AID 1988); type: functional, cell-based
BJ [14] = experiment: cells; type: functional, cell-based; details: Homo sapiens
BJ [15] = experiment: BJ-TERT-LT-ST fibroblast viability loss – cell-based, RAS-independent, luminescence, dose response (AID 1935); type: functional; details: Homo sapiens;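 further: BJ fibroblasts immortalized with TERT plus LT and ST oncogenes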
BJ [16] = experiment: BJ-TERT fibroblast viability loss – cell-based, RAS-independent, luminescence, dose response (AID 1933); type: functional; details: Homo sapiens
Beta-galactosidase = Beta-galactosidase (Escherichia coli, UniProt Q8VNN2); experiment: Dose response counterscreen for EBI2 assay utilizing the enzyme, b-galactosidase.; type: functional
[17] = target: Lysosomal acid glucosylceramidase (Homo sapiens, UniProt P04062); experiment: Dose response cell-based high throughput screening assay to identify enhancers of beta-glucosidase activity. [Related pubchem assays: 784 ]; type: functional
[18] = target: Peroxisome proliferator-activated receptor gamma/Nuclear receptor coactivator 2 (Homo sapiens, UniProt P37231); type: functional;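 further: agonist potency for raising coactivator recruitment to the receptor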
[19] = target: Peroxisome proliferator-activated receptor gamma/Nuclear receptor coactivator 1 (Homo sapiens, UniProt P37231); type: functional;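 further: agonist potency as compounds enhance coactivator SRC-1 recruitment to PPARgamma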
[20] = target: Peroxisome proliferator-activated receptor gamma/Nuclear receptor coactivator 3 (Homo sapiens, UniProt P37231); type: functional;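 further: agonist potency for raising coactivator recruitment to the receptor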
[21] = target: T5, Neuropeptides B/W receptor type 1 (Homo sapiens, UniProt P48145); experiment: Fluorescence-based dose response cell-based high throughput screening assay to identify antagonists of the G-protein coupled receptor 7 (GPR7). [Related pubchem assays: 1952 (Screening assay (GPR7 antagonists).), 1880 (Summary AID.)]; type: functional
T5 sequence (P48145 whole entry): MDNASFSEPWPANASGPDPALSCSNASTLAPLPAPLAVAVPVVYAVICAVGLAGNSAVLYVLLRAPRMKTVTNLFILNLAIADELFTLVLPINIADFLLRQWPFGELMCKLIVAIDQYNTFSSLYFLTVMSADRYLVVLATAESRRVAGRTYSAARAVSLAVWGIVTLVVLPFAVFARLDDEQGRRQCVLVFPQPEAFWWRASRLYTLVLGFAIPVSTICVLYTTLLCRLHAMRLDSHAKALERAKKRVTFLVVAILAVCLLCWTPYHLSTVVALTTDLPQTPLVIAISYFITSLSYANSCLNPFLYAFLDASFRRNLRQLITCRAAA

[22] = target: Melanin-concentrating hormone receptor 1 (Homo sapiens, UniProt Q99705); experiment: Fluorescence-based counterscreen for antagonists of the G-protein coupled receptor 7 (GPR7): cell-based high throughput dose response assay to identify antagonists of the melanin-concentrating hormone receptor 1 (MCHR1).; type: functional
Chain of Melanin-concentrating hormone receptor 1 (Q99705 whole entry): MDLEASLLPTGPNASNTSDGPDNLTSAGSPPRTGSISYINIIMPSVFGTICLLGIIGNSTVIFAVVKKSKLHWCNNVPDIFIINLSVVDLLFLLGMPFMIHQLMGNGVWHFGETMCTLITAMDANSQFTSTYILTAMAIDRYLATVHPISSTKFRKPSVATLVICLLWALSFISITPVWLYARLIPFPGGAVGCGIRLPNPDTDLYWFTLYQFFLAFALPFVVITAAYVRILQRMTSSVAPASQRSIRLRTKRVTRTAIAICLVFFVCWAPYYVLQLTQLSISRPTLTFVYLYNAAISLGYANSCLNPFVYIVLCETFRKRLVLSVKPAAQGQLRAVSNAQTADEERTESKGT

Chain of Lysosomal acid glucosylceramidase (P04062 whole entry): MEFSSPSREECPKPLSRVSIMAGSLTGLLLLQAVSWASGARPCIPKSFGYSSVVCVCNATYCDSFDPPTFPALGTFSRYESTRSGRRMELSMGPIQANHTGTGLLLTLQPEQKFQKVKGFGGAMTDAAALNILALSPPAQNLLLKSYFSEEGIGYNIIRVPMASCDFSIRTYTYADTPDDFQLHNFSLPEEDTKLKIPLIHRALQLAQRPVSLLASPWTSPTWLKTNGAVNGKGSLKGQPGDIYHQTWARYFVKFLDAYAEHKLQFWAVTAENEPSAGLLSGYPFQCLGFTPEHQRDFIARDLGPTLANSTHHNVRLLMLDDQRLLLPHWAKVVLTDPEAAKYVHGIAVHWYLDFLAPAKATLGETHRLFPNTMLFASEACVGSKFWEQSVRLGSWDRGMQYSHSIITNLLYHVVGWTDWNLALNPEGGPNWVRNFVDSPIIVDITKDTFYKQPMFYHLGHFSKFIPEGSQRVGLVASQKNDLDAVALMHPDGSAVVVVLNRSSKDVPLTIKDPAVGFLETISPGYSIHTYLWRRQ
Chain of Paired box protein Pax-8 (Q06710 whole entry): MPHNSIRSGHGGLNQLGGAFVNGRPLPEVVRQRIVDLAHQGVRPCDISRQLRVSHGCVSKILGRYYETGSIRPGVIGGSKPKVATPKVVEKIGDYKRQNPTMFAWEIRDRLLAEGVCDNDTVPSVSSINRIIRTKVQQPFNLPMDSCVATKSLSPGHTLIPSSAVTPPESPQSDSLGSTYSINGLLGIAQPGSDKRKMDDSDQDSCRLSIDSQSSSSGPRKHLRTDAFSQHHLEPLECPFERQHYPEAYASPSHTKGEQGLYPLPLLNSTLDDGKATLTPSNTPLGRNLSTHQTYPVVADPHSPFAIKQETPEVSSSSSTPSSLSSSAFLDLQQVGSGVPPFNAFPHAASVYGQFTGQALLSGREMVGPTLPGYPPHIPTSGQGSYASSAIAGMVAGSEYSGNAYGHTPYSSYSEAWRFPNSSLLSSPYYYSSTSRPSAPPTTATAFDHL
Chain of Peroxisome proliferator-activated receptor gamma/Nuclear receptor coactivator 3 (P37231 whole entry): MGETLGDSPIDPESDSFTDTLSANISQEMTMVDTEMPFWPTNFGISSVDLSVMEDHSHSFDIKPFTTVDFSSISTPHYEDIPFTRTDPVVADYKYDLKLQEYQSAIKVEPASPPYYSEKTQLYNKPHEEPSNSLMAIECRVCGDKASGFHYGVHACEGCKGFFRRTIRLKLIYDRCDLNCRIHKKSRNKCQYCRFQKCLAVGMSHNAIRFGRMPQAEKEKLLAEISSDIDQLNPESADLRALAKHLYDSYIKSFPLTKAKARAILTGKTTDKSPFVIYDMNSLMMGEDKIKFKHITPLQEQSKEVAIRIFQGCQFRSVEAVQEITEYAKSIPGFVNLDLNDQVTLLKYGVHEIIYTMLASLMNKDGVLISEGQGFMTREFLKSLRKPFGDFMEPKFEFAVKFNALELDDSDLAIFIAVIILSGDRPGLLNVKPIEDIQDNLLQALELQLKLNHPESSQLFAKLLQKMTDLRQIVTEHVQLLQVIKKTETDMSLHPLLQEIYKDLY
Chain of Peroxisome proliferator-activated receptor gamma/Nuclear receptor coactivator 3 (Q9Y6Q9 whole entry, further chain): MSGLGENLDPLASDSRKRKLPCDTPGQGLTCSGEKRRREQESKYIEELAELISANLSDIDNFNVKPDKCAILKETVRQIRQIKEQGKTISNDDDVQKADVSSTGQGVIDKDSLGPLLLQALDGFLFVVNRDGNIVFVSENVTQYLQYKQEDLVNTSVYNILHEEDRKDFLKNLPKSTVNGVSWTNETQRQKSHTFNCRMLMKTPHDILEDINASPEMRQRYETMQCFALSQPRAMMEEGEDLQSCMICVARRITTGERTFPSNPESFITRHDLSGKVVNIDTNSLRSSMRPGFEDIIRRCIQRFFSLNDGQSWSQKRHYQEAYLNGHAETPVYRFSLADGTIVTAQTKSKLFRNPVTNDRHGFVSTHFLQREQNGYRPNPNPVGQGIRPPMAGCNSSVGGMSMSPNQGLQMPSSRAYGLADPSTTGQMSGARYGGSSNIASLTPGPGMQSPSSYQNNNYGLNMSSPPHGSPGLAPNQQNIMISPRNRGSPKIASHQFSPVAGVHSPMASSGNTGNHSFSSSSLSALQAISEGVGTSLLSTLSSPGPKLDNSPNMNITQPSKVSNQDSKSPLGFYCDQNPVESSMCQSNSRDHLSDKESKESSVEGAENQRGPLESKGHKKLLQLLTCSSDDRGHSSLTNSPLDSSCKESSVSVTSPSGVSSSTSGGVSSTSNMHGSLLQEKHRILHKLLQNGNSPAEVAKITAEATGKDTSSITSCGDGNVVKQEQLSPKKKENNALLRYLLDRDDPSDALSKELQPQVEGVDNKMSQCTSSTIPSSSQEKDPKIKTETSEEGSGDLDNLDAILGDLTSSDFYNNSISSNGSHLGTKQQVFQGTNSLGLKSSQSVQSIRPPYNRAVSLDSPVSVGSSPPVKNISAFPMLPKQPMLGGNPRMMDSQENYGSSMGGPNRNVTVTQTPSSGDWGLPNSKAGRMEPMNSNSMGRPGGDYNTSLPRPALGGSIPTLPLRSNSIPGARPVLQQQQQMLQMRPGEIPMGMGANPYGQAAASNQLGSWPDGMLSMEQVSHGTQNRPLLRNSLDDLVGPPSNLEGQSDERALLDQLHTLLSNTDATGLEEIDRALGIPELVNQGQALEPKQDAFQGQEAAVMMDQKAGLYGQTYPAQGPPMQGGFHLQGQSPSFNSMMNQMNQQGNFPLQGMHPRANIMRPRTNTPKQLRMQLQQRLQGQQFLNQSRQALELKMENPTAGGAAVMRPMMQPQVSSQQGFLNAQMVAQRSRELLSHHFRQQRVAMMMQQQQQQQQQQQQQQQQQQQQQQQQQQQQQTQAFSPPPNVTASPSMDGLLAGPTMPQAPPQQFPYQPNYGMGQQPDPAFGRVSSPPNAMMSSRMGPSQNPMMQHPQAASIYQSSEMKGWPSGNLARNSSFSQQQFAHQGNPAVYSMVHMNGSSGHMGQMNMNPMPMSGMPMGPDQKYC
Chain of Beta-galactosidase (Q8VNN2 whole entry): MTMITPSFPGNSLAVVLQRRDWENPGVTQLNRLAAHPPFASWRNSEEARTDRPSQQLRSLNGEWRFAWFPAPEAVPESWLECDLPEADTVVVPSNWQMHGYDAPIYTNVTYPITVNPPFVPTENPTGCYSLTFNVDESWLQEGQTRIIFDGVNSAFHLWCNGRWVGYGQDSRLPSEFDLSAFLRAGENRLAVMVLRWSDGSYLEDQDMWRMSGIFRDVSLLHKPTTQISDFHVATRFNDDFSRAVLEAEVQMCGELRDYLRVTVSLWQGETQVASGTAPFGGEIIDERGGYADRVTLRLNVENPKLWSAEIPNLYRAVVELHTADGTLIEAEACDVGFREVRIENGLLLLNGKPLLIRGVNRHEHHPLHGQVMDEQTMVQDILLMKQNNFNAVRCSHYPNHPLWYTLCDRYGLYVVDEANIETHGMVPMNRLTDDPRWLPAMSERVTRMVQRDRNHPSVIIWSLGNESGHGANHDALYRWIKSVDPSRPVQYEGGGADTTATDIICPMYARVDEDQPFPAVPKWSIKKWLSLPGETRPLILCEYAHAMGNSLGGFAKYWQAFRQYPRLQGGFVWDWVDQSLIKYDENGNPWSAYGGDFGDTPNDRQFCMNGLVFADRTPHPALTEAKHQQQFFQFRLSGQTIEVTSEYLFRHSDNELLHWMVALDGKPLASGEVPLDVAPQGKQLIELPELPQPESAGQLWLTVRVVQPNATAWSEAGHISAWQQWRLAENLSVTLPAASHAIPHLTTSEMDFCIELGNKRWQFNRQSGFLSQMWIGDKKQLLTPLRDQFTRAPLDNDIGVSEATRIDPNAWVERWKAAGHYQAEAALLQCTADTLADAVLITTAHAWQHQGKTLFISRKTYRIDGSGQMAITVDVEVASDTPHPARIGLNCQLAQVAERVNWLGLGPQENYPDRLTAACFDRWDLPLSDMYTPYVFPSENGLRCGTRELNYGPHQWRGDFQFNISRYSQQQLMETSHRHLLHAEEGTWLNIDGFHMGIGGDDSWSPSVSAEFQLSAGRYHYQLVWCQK

CC/C(=C/c1sc2ccc(C)cc2[n+]1CCO)SC
EC50 (Protein RecA): 14.2 µM (active) | AC50 [1]: > 380 µM (inactive) | EC50 [2]: > 100 µM (not active)

Cc1cc2oc(=O)cc(CN(C)Cc3ccccc3)c2cc1C(C)C
EC50 (Streptococcus [3]): > 150 µM (not active) | EC50 (Streptococcus [4]): > 500 µM (not active) | EC50 [5]: 13.3 µM (active) | EC50 (Streptokinase A): 8.46 µM (active)

Cc1ccc2[nH]c(SCC(=O)Nc3ccc4c(c3)CCC4)nc2c1
IC50 [6]: > 100 µM (active)

COc1ccc(CCNc2nnc(Sc3nnnn3-c3ccccc3)s2)cc1OC
EC50 (BJ [7]): 0.616 µM (active) | EC50 [8]: 2.38 µM (active) | IC50 [9]: > 80 µM (inactive) | EC50 [10]: 10.8 µM (active) | AC50 (Paired box protein Pax-8): 4.21 µM (active) | IC50 [11]: 2.49 µM (active) | EC50 [12]: 5.51 µM (active) | EC50 [13]: 5.09 µM (active) | EC50 (BJ [14]): 3.24 µM (active) | EC50 (BJ [15]): 2.35 µM (inconclusive) | EC50 (BJ [16]): 2.95 µM (active)

COc1ccc2oc(C(=O)N3CCN(C(c4ccccc4)c4ccccc4)CC3)c(C)c2c1
EC50 (Streptococcus [3]): > 150 µM (not active) | EC50 (Streptococcus [4]): > 500 µM (not active) | EC50 [5]: 32.2 µM (active) | EC50 (Streptokinase A): 4.97 µM (active) | IC50 (Beta-galactosidase): > 80 µM (inactive)

O=C(CCCn1c(=S)[nH]c2cc3c(cc2c1=O)OCO3)N1CCN(c2ncccn2)CC1
EC50 [17]: > 50 µM (not active)

COc1ccc2nc(C)cc(SCC(=O)Nc3c(C)cc(C)cc3C)c2c1
EC50 [18]: 27.8 µM (not active) | EC50 [19]: 55.2 µM (not active) | EC50 [2]: > 100 µM (not active) | EC50 [20]: > 79.4 µM (not active)

CC(C)(C)NC(=O)CSc1nnc(-c2ccco2)n1Cc1ccco1
EC50 [17]: > 50 µM (not active)

O=C(NC1CCCCCCC1)C1c2ccccc2C(=O)N1Cc1ccco1 (stereo not drawn)
IC50 [21]: > 43.8 µM (not active) | IC50 [22]: > 43.8 µM (not active)

O=C(O)C1CCCCC1C(=O)Nc1ccccc1Nc1ccccc1 (stereo not drawn)
IC50 [6]: > 100 µM (active)
